Measurements reported in the OligoGym collection.
After the bases stand the sugars from the 5' end (letter, count) and the backbone: PS all phosphorothioate, else s phosphorothioate and o phosphodiester by linkage. Methylation of C is not given here. e = 2'-O-(2-methoxyethyl) (MOE); k = constrained ethyl (cEt); d = 2'-deoxy (DNA); m = 2'-O-methyl

Biological target: HSD17B13
Conditions: ASO, HepaRG

Sequence | target mRNA inhibition (1 µM) [%] | also measured
CGGCCTATTCTTCTGT (sugars k3 d10 k3, PS) | 25 | –
CGGTCACCTTTCATAA (sugars kkdddddddddkekek, PS) | 70 | –
CGTAAAATTGTGTCTC (sugars k3 d10 k3, PS) | 43 | –
CGTAAATATTCTTGAG (sugars k3 d10 k3, PS) | 61 | –
CGTAACCATGCATTAA (sugars k3 d10 k3, PS) | 68 | –
CGTATTTGAGATTCAC (sugars k3 d10 k3, PS) | 59 | –
CGTCAAATAGGGCTGG (sugars k3 d10 k3, PS) | 53 | –
CGTCCAAAAGTGTCCT (sugars k3 d10 k3, PS) | 53 | –
CGTCCTAGGAAACAAA (sugars k3 d10 k3, PS) | 45 | –
CGTTTGACTGCTGCTA (sugars k3 d10 k3, PS) | 58 | –
CTAAAATTGTCTAAAC (sugars k3 d10 k3, PS) | 35 | –
CTAAACATCTCTGGGA (sugars k3 d1 m1 d8 k3, PS) | 32 | –
CTAAACATCTCTGGGA (sugars k3 d10 k3, PS) | 62 | –
CTAAACCCTGGAGCAG (sugars k3 d10 k3, PS) | 42 | –
CTAAAGGAGATCTGAG (sugars k3 d10 k3, PS) | 47 | –
CTAAATTACTCCGTTC (sugars k3 d10 k3, PS) | 20 | –
CTAAATTATTGCCTGA (sugars k3 d10 k3, PS) | 39 | –
CTAACCTGACACATAT (sugars k3 d10 k3, PS) | 18 | –
CTAAGTTATTATCCCC (sugars k3 d10 k3, PS) | 70 | target mRNA inhibition (0.02 µM): 16%; target mRNA inhibition (0.078 µM): 22%; target mRNA inhibition (0.313 µM): 48%; target mRNA inhibition (1.25 µM): 72%; target mRNA inhibition (5 µM): 95%
CTAATATTGAGGCACT (sugars k3 d10 k3, PS) | 51 | –
CTAATCTCAGTACTCC (sugars k3 d10 k3, PS) | 53 | –
CTACAAAACTGGTATC (sugars k3 d10 k3, PS) | 0 | –
CTACACTAATATTGAG (sugars kkdddddddddkekek, PS) | 5 | –
CTACAGATTGGAATGC (sugars k3 d10 k3, PS) | 52 | –
CTACATGACCTGGGTC (sugars k3 d10 k3, PS) | 59 | –

Sequence | target mRNA inhibition (1 µM) [%] | also measured
CTACATGGATCCAACA (sugars k3 d10 k3, PS) | 5 | –
CTACTTCACTATATTG (sugars k3 d10 k3, PS) | 33 | –
CTACUTGAACAGTCTT (sugars k3 d1 m1 d8 k3, PS) | 79 | target mRNA inhibition (0.02 µM): 9%; target mRNA inhibition (0.078 µM): 22%; target mRNA inhibition (0.313 µM): 46%; target mRNA inhibition (1.25 µM): 77%; target mRNA inhibition (5 µM): 76%
CTAGGATTAATCATGG (sugars k3 d10 k3, PS) | 65 | –
CTAGGGAAATCTTTCA (sugars k3 d10 k3, PS) | 48 | –
CTAGTGGTAATGGTAA (sugars k3 d10 k3, PS) | 62 | –
CTATAGTAATCACAAG (sugars k3 d1 m1 d8 k3, PS) | 37 | –
CTCAAAGTCAGTATCC (sugars k3 d10 k3, PS) | 70 | –
CTCAACAGAGAATTGT (sugars k3 d10 k3, PS) | 29 | –
CTCAGGCTGTAAGAGT (sugars kkdddddddddkekek, PS) | 10 | –
CTCATTTAGCAGCTTG (sugars k3 d10 k3, PS) | 70 | target mRNA inhibition (0.02 µM): 1%; target mRNA inhibition (0.078 µM): 10%; target mRNA inhibition (0.313 µM): 46%; target mRNA inhibition (1.25 µM): 65%; target mRNA inhibition (5 µM): 90%
CTCCTGAGTCTTTCTA (sugars k3 d10 k3, PS) | 23 | –
CTCTAAGTGTAAGAGA (sugars k3 d10 k3, PS) | 28 | –
CTCTATTGATTGGCTT (sugars k3 d10 k3, PS) | 65 | –
CTCTCCATCATCGATG (sugars k3 d10 k3, PS) | 0 | –
CTCTGTGAAAGCCAAC (sugars k3 d10 k3, PS) | 50 | –
CTCTTAGCTGTGCACT (sugars k3 d9 k3 e1, PS) | 66 | target mRNA inhibition (0.02 µM): 0%; target mRNA inhibition (0.078 µM): 20%; target mRNA inhibition (0.313 µM): 0%; target mRNA inhibition (1.25 µM): 39%; target mRNA inhibition (5 µM): 79%
CTCTTGACAATGGTTG (sugars k3 d10 k3, PS) | 50 | –
CTCTUAGCTGTGCACT (sugars k3 d1 m1 d8 k3, PS) | 67 | target mRNA inhibition (0.02 µM): 16%; target mRNA inhibition (0.078 µM): 14%; target mRNA inhibition (0.313 µM): 33%; target mRNA inhibition (1.25 µM): 52%; target mRNA inhibition (5 µM): 58%
CTGAAAAGCCCTATTC (sugars k3 d10 k3, PS) | 11 | –
CTGAAATTGATACACC (sugars k3 d1 m1 d8 k3, PS) | 71 | –
CTGATATGAGTAAAGA (sugars k3 d10 k3, PS) | 21 | –
CTGCATTAATGCCACC (sugars k3 d9 k3 e1, PS) | 40 | –
CTGCATTAATGCCACC (sugars kkdddddddddkekek, PS) | 6 | –
CTGCTGCTAGTGCCAA (sugars k3 d9 k3 e1, PS) | 66 | –

Sequence | target mRNA inhibition (1 µM) [%] | also measured
CTGCTGCTAGTGCCAA (sugars kkdddddddddkekek, PS) | 44 | –
CTGGAACAATATGGGA (sugars k3 d1 m1 d9 k2, PS) | 45 | –
CTGGAACAATATGGGA (sugars k3 d9 k3 e1, PS) | 36 | –
CTGGAACAATATGGGA (sugars kkdddddddddkekek, PS) | 33 | –
CTGGAAGATTAATCAT (sugars k3 d10 k3, PS) | 31 | –
CTGGAGAAGAGTTTAC (sugars k3 d10 k3, PS) | 38 | –
CTGTAAGAGTCAGTAT (sugars k3 d10 k3, PS) | 42 | –
CTGTATTAAGACAGTT (sugars k3 d10 k3, PS) | 41 | –
CTGTCATAAAGGTGGG (sugars k3 d10 k3, PS) | 59 | –
CTGTGACGATGTGGCC (sugars k3 d10 k3, PS) | 28 | –
CTGTGGCATGGCTACA (sugars kkdddddddddkekek, PS) | 33 | –
CTGTGTAAATAAGTTC (sugars k3 d10 k3, PS) | 38 | –
CTGTGTTAGCTTTAAT (sugars kkdddddddddkekek, PS) | 47 | –
CTTAAACCTTCCCTGT (sugars k3 d1 m1 d8 k3, PS) | 24 | –
CTTAAACCTTCCCTGT (sugars k3 d9 k3 e1, PS) | 34 | –
CTTAAGAGAAGGTGCA (sugars k3 d10 k3, PS) | 43 | –
CTTAAGATACCCAGGT (sugars k3 d9 k3 e1, PS) | 45 | –
CTTACATATTGCATAC (sugars k3 d10 k3, PS) | 35 | –
CTTAGTGTAGAATTGT (sugars k3 d10 k3, PS) | 56 | –
CTTATTGGTAAGTATT (sugars k3 d9 k3 e1, PS) | 24 | –
CTTATTGGTAAGTATT (sugars k3 d10 k3, PS) | 22 | –
CTTCACCAACGACTCC (sugars k3 d10 k3, PS) | 8 | –
CTTCAGAGTTATACAG (sugars k3 d10 k3, PS) | 35 | –
CTTCATAGTGGACTTC (sugars k3 d1 m1 d8 k3, PS) | 35 | –
CTTCTATTGTATGAGG (sugars k3 d10 k3, PS) | 40 | –

Sequence | target mRNA inhibition (1 µM) [%] | also measured
CTTCTGTAGGTTTTGC (sugars k3 d10 k3, PS) | 60 | –
CTTGAACAGTCTTAAA (sugars kkdddddddddkekek, PS) | 38 | –
CTTGAATAGCAAGCCA (sugars k3 d10 k3, PS) | 25 | –
CTTGATCTCTTAGCTG (sugars k3 d9 k3 e1, PS) | 36 | –
CTTGATGTAGTGGGAG (sugars k3 d10 k3, PS) | 83 | target mRNA inhibition (0.02 µM): 0%; target mRNA inhibition (0.078 µM): 4%; target mRNA inhibition (0.313 µM): 21%; target mRNA inhibition (1.25 µM): 62%; target mRNA inhibition (5 µM): 80%
CTTGATGTAGTGGGAG (sugars kkdddddddddkekek, PS) | 20 | –
CTTTTAACTACCCTCA (sugars k3 d10 k3, PS) | 16 | –
CTTTTAGGGAGGTAGC (sugars k3 d10 k3, PS) | 62 | –
CTTTTTATAGACTGGG (sugars k3 d9 k3 e1, PS) | 44 | –
CTTTTTATAGACTGGG (sugars k3 d10 k3, PS) | 67 | –
GAAAAAGGTTATCATG (sugars k3 d10 k3, PS) | 31 | –
GAAACCAATCCTCAGC (sugars k3 d10 k3, PS) | 3 | –
GAAACTTGATCTCTTA (sugars k3 d10 k3, PS) | 64 | –
GAAACTTGATCTCTTA (sugars kkdddddddddkekek, PS) | 54 | –
GAAATAACTGTTCTCC (sugars k3 d10 k3, PS) | 32 | –
GAACAATATGGGATGA (sugars k3 d10 k3, PS) | 26 | –
GAACAGTCTTAAACCT (sugars k3 d9 k3 e1, PS) | 64 | –
GAACAGTCTTAAACCT (sugars k3 d10 k3, PS) | 64 | –
GAACAGTTCAACTGAA (sugars k3 d10 k3, PS) | 10 | –
GAACATACATTGTTGC (sugars k3 d10 k3, PS) | 58 | –
GAACTGTGTTGCTTGT (sugars k3 d10 k3, PS) | 77 | –
GAAGACTACATTAACA (sugars k3 d10 k3, PS) | 36 | –
GAAGAGGCTAGGGAAA (sugars k3 d10 k3, PS) | 44 | –
GAAGATCGGCTGGATA (sugars k3 d10 k3, PS) | 16 | –
